Experimental data taken from patent publication US12319655B2, “RAF kinase inhibitors and methods of use thereof” (Deciphera Pharmaceuticals, LLC, priority 2021, dated 2025).

Columns and labels:
[1] = system: WM3928 cells; assay: WM3928 Cell Proliferation Assay (2); assay type: cell-based
Procedure: WM3928 Cell Proliferation Assay (2)
WM3928 cells (#WM3928-01-0001) are obtained from Rockland Immunochemicals Inc (Gilbertsville, PA). Briefly, cells were grown in MCDB 153 medium (Sigma, #M7403, St. Louis, MO) supplemented with 20% Leibovitz's L-15 (ThermoFisher #11415-064, Waltham, MA), 2% heat inactivated fetal bovine serum (ThermoFisher, #A3840001, Waltham, MA), 5 μg/mL Insulin (Bovine Pancreas) (Sigma, #10516, St. Louis, MO), 1.68 mM Calcium Chloride (Sigma, #C-34006, St. Louis, MO) and 1% Penicillin/Streptomycin/L-Glutamine (ThermoFisher #10378016, Waltham, MA) at 37° C., 5% CO2, and 95% humidity. Cells are expanded until reaching 70-95% confluency at which point they are sub-cultured or harvested for assay use. Using the Beckman Coulter Echo 650, a serial dilution of test compound is dispensed into a 384-well black clear bottom plate in triplicate. Seven hundred fifty cells are added per well in 50 μL complete growth medium in the 384-well plate. Plates are incubated for 67-72 hours at 37° C., 5% CO2, and 95% humidity. At the end of the incubation, 10 μL of a 440 μM solution of resazurin (Sigma, #199303, St. Louis, MO) in PBS is added to each well of the plate and plates are incubated for an additional 3-6 hours at 37° C., 5% CO2, and 95% humidity. Plates are read on a Synergy2 or equivalent reader (Biotek, Winooski VT) using an excitation of 540 nm and an emission of 600 nm. Data is analyzed using Prism software (GraphPad, San Diego, CA) to calculate IC50 values.

[2] = target: B-Raf (V600E) (SEQ. ID NO: 4) kinase (Homo sapiens (Human), UniProt P15056, V600E); assay: Biochemical Assay for B-Raf (V600E) (2); settings: Table J, BRAF V600E, biochemical assay (2); read-out: BRAF VE (2)
Procedure: Biochemical Assay for B-Raf (V600E) (2)
Activity of B-Raf (V600E) (SEQ. ID NO: 4) kinase was determined spectroscopically using a coupled pyruvate kinase/lactate dehydrogenase assay that continuously monitors the ATP hydrolysis-dependent oxidation of NADH (e.g., Schindler et al., Science, 2000, 289, 1938-1942). Assays were conducted in 384-well plates (25 μL final volume) using 0.5 nM B-Raf (deCode), 1.5 units pyruvate kinase, 2.1 units lactate dehydrogenase, 1 mM phosphoenol pyruvate, 0.7 mM NADH, 100 nM MEK (SignalChem), and 1 mM ATP in assay buffer (100 mM Tris, pH 7.5, 15 mM MgCl2, 0.5 mM DTT, 0.1% octyl-glucoside, 0.002% (w/v) BSA, and 0.002% Triton X-100). Inhibition of B-Raf (V600E) was measured by adding serial diluted test compound (final assay concentration of 1% DMSO). A decrease in absorption at 340 nm was monitored hourly for 4 h at 30° C. on a multi-mode microplate reader (BioTek). The reaction rate was calculated using the 3 to 4 h time frame. The reaction rate at each concentration of compound was converted to percent inhibition using controls (i.e., reaction with no test compound and reaction with a known inhibitor) and IC50 values were calculated by fitting a four-parameter sigmoidal curve to the data using Prism (GraphPad software).

[3] = target: B-Raf kinase (SEQ. ID NO: 2) (Homo sapiens (Human), UniProt P15056); assay: Biochemical Assay for B-Raf (2); settings: Table J, biochemical assay (2); read-out: BRAF (2)
Procedure: Biochemical Assay for B-Raf (2)
(§1) Activity of B-Raf kinase (SEQ. ID NO: 2) was determined spectroscopically using a coupled pyruvate kinase/lactate dehydrogenase assay that continuously monitors the ATP hydrolysis-dependent oxidation of NADH (e.g., Schindler et al., Science, 2000, 289, 1938-1942). Assays were conducted in 384-well plates (25 μL final volume) using 2 nM B-Raf (Sigma), 1.5 units pyruvate kinase, 2.1 units lactate dehydrogenase, 1 mM phosphoenol pyruvate, 0.7 mM NADH, 50 nM MEK (SignalChem), and 1 mM ATP in assay buffer (100 mM Tris, pH 7.5, 15 mM MgCl2, 0.5 mM DTT, 0.1% octyl-glucoside, 0.002% (w/v) BSA, and 0.002% Triton X-100). Inhibition of B-Raf was measured by adding serial diluted test compound (final assay concentration of 1% DMSO). A decrease in absorption at 340 nm was monitored hourly for 4 h at 30° C. on a multi-mode microplate reader (BioTek). The reaction rate was calculated using the 2 to 3 h time frame. The reaction rate at each concentration of compound was converted to percent inhibition using controls (i.e., reaction with no test compound and reaction with a known inhibitor) and IC50 values were calculated by fitting a four-parameter sigmoidal curve to the data using Prism (GraphPad software).

[4] = target: C-Raf kinase (SEQ. ID NO: 3) (Homo sapiens (Human), UniProt P04049, Y340D/Y341D); assay: Biochemical Assay for C-Raf (2); settings: Table J, biochemical assay (2); read-out: CRAF (2)
Procedure: Biochemical Assay for C-Raf (2)
as §1, with “of C-Raf” for “of B-Raf”, “NO: 3)” for “NO: 2)”, “using 3.84” for “using 2”, “nM C-Raf (Eurofins),” for “nM B-Raf (Sigma),”

Chain of C-Raf kinase (SEQ. ID NO: 3) (P04049 307-648 Y340D/Y341D): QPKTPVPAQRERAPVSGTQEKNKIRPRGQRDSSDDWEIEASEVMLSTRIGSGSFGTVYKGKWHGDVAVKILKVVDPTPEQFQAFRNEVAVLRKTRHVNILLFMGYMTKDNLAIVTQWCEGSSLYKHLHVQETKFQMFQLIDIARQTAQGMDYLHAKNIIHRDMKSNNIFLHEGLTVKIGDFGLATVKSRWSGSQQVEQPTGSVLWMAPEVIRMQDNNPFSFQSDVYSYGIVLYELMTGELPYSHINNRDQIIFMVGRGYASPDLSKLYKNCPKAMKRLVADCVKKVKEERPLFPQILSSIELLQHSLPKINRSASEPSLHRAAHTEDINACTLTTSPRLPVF
Chain of B-Raf kinase (SEQ. ID NO: 2) (P15056 416-766): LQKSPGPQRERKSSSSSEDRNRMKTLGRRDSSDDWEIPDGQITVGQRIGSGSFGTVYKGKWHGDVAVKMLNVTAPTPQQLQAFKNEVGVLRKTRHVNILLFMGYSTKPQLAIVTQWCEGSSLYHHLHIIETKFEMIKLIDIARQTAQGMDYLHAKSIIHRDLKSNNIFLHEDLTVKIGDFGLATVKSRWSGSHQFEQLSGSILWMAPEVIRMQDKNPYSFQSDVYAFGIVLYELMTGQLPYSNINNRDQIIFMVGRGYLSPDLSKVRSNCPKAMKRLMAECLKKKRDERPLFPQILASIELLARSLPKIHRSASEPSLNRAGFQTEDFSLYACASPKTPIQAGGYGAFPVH
Chain of B-Raf (V600E) (SEQ. ID NO: 4) kinase (P15056 416-766 V600E): as the sequence (P15056 416-766) above, with V185E counted along it

SMILES	IC50 [1] [nM]	IC50 [2] [nM]	IC50 [3] [nM]	IC50 [4] [nM]
CNC(=O)c1cc(-c2cncc(-c3cc(NC(=O)c4ccnc(C(C)(F)F)c4)ccc3C)c2)ncn1 [Example 439]	100 to 500	≤ 100	≤ 100	≤ 100
CNC(=O)c1cc(-c2cncc(-c3cc(NC(=O)c4ccnc(C(C)(F)F)c4)ccc3C)c2)ccn1 [Example 440]	≤ 100	≤ 100	≤ 100	≤ 100
CNC(=O)c1cc(-c2cc(-c3cc(NC(=O)c4ccnc(C(C)(F)F)c4)ccc3C)ccn2)ccn1 [Example 441]	≤ 100	≤ 100	≤ 100	≤ 100
CNC(=O)c1cc(-c2cncc(-c3cc(NC(=O)c4ccnc(C(C)(C)C#N)c4)ccc3C)c2)ccn1 [Example 442]	≤ 100	≤ 100	≤ 100	≤ 100
CNC(=O)c1cc(-c2cc(-c3cc(NC(=O)c4ccnc(C(C)C)c4)ccc3C)ccn2)ccn1 [Example 443]	≤ 100	≤ 100	≤ 100	≤ 100
CNC(=O)c1cc(-c2cc(-c3cc(NC(=O)c4ccnc(C(C)(C)F)c4)cnc3C)ccn2)ccn1 [Example 444]	100 to 500	≤ 100	100 to 500	≤ 100
CNC(=O)c1cc(-c2cncc(-c3cc(NC(=O)c4ccnc(C(C)C)c4)ccc3C)c2)ccn1 [Example 445]	≤ 100	≤ 100	≤ 100	≤ 100
CNC(=O)c1cc(-c2cncc(-c3cc(NC(=O)c4ccnc(C(C)C)c4)ccc3C)c2)ncn1 [Example 446]	≤ 100	≤ 100	≤ 100	≤ 100
Cc1ccc(NC(=O)c2ccnc(C(C)(C)F)c2)cc1-c1ccnc(-c2ccnc(C#N)c2)c1 [Example 447]	500 to 1000	100 to 500	100 to 500	≤ 100
Cc1ccc(NC(=O)c2ccnc(C(C)(C)F)c2)cc1-c1ccnc(-c2ccnc(C(=O)NCCO)c2)c1 [Example 448]	≤ 100	≤ 100	100 to 500	≤ 100
CNC(=O)c1cc(-c2cc(-c3cc(NC(=O)c4ccnc(C(C)(C)F)c4)ccc3C)cc(OCCO)n2)ccn1 [Example 449]	≤ 100	≤ 100	100 to 500	≤ 100
Cc1ccc(NC(=O)c2ccnc(C(C)(C)F)c2)cc1-c1ccnc(-c2ccnc(C(=O)NC3CN(C)C3)c2)c1 [Example 450]	100 to 500	≤ 100	100 to 500	100 to 500
Cc1ccc(NC(=O)c2ccnc(C(C)(C)F)c2)cc1-c1ccnc(-c2ccnc(C(=O)NCC#N)c2)c1 [Example 451]	≤ 100	≤ 100	≤ 100	≤ 100
CNC(=N)c1cc(-c2cc(-c3cc(NC(=O)c4ccnc(C(C)(C)F)c4)ccc3C)ccn2)ccn1 [Example 452]	100 to 500	≤ 100	≤ 100	≤ 100
Cc1ccc(NC(=O)c2ccnc(C(C)(C)F)c2)cc1-c1ccnc(-c2ccnc(C(=O)NCCN(C)C)c2)c1 [Example 453]	100 to 500	≤ 100	≤ 100	≤ 100
Cc1ncc(NC(=O)c2ccnc(C(C)(C)F)c2)cc1-c1ccnc(-c2ccnc(NC(=O)C3CC3)c2)c1 [Example 454]	≤ 100	≤ 100	≤ 100	≤ 100
Cc1ccc(NC(=O)c2ccnc(C(C)(C)F)c2)cc1-c1ccnc(-c2ccnc(NC(=O)C3CC3)c2)c1 [Example 455]	≤ 100	≤ 100	≤ 100	≤ 100
Cc1ccc(NC(=O)c2ccnc(C(C)(C)C#N)c2)cc1-c1ccnc(-c2ccnc(NC(=O)C3CC3)c2)c1 [Example 456]	≤ 100	≤ 100	≤ 100	≤ 100
Cc1ccc(NC(=O)c2ccnc(C3(C#N)CC3)c2)cc1-c1ccnc(-c2ccnc(NC(=O)C3CC3)c2)c1 [Example 457]	≤ 100	≤ 100	≤ 100	≤ 100
Cc1ccc(NC(=O)c2ccnc(C3CC3)c2)cc1-c1ccnc(-c2ccnc(NC(=O)C3CC3)c2)c1 [Example 458]	≤ 100	≤ 100	≤ 100	≤ 100
Cc1ccc(NC(=O)c2ccnc(C(C)(F)F)c2)cc1-c1ccnc(-c2ccnc(NC(=O)C3CC3)c2)c1 [Example 459]	≤ 100	≤ 100	≤ 100	≤ 100
CNC(=O)c1cc(-c2cc(-c3cc(NC(=O)c4ccnc(C5CC5)c4)ccc3C)ccn2)ccn1 [Example 460]	≤ 100	≤ 100	≤ 100	≤ 100
Cc1ncc(NC(=O)c2ccnc(C3(C#N)CC3)c2)cc1-c1ccnc(-c2ccnc(NC(=O)C3CC3)c2)c1 [Example 461]	≤ 100	≤ 100	≤ 100	≤ 100
CNC(=O)c1cc(-c2cc(-c3cc(NC(=O)c4ccnc(C5CC5)c4)cnc3C)ccn2)ccn1 [Example 462]	500 to 1000	100 to 500	100 to 500	≤ 100
CNC(=O)c1cc(-c2cc(-c3cc(NC(=O)c4ccnc(C(C)(F)F)c4)cnc3C)ccn2)ccn1 [Example 463]	100 to 500	≤ 100	100 to 500	≤ 100
CNC(=O)c1cc(-c2cc(-c3cc(NC(=O)c4ccnc(C5(C#N)CC5)c4)cnc3C)ccn2)ccn1 [Example 464]	100 to 500	≤ 100	100 to 500	≤ 100
